In PMC9598926, “Design and Synthesis of (Z)-5-(Substituted benzylidene)-3-cyclohexyl-2-thioxothiazolidin-4-one Analogues as Anti-Tyrosinase and Antioxidant Compounds: In Vitro and In Silico Insights” (Antioxidants, 2022):

Experiments:
[1] = system: mushroom tyrosinase; assay: Kinetic studies on mushroom tyrosinase inhibition (Lineweaver–Burk and Dixon plots, L-tyrosine); format: biochemical; settings: for mode of mushroom tyrosinase inhibition: L-tyrosine as substrate; for Ki: mushroom tyrosinase
Description: 2.6. Kinetic Studies on Mushroom Tyrosinase Inhibition by Analogues 2 and 3
Lineweaver–Burk plots of analogues 2 and 3 were used to determine modes of mushroom tyrosinase inhibition in the presence of L-tyrosine as substrate. Briefly, 20 µL of an aqueous mushroom tyrosinase solution (200 units/mL), and 170 µL of an aqueous solution consisting of L-tyrosine at various concentrations (final concentrations: 0, 1, 2, 4, 8, or 16 mM), and sodium phosphate buffer (pH 6.5, final concentration: 14.7 mM) were added to the wells of a 96-well microplate. Subsequently, analogues 2 and 3 at four different concentrations (10 µL; final concentrations 0, 5, 10, or 20 µM in DMSO solution for 2, and concentrations of 0, 1, 2, or 4 µM in DMSO solution for 3) were added to wells. Initial rates of dopachrome formation were determined by measuring changes in absorbance at 475 nm per min (ΔOD475/min) using a microplate reader (VersaMax®, Molecular Devices, Sunnyvale, CA, USA). Maximum velocities (Vmax) were calculated from Lineweaver–Burk plots obtained using six different L-tyrosine concentrations. The modes of mushroom tyrosinase inhibition by the analogs were determined using the locations of plot convergence points.
Lineweaver–Burk double reciprocal plots were used to analyze enzyme’s inhibitory mechanisms. Kinetic studies were conducted using four different concentrations of analogs 2 (0, 5, 10, or 20 μM) and 3 (0, 1, 2, or 4 μM) in the presence of L-tyrosine at five different concentrations (1, 2, 4, 8, or 16 mM).

[2] = system: B16F10 murine melanoma cells; assay: B16F10 cell viability (EZ-Cytox assay); format: cell-based
Description: 2.8. Viabilities of B16F10 Murine Melanoma Cells Treated with Analogues 2 or 3
The cytotoxic effects of analogs 2 and 3 were examined using B16F10 murine melanoma cells, as previously described. Cell viabilities were determined using the EZ-Cytox cell viability assay kit (Daeil Lab Service Co. Ltd., Seoul, Korea). Briefly, B16F10 cells (density 1 × 10^4 cells/well) were added to the wells of a 96-well microplate and cultured in a humidified 5% CO2 atmosphere at 37 °C for 24 h. Cells were then exposed to analogs 2 or 3 at 0, 1, 2, 5, 10, or 20 µM and incubated in a humidified 5% CO2 atmosphere for 24, 48, or 72 h at 37 °C. At these time points, cells were exposed to 10 µL of EZ-Cytox solution and incubated for 2 h at 37 °C. Optical densities of wells were then measured at 450 nm using a microplate reader (VersaMax®, Molecular Devices, Sunnyvale, CA, USA) to assess cell viability. Experiments were conducted independently 3 times.
Since analogs 2 and 3 had potent inhibitory effects on mushroom tyrosinase, they were subjected to B16F10 murine melanoma cytotoxicity assays. Initially, the cytotoxicities of 2 and 3 were investigated at concentrations of 0, 1, 2, 5, 10, and 20 µM using the EZ-Cytox cell viability assay (EZ-3000; DoGenBio, Seoul, Korea). Cell viability was measured after treatment for 24, 48, or 72 h (Figure 6).

[3] = DPPH radical scavenging activity assay; settings: test sample 500 µM, DPPH 0.18 mM, 30 min in the dark
Description: 2.11. DPPH Radical Scavenging Activity Assay
The DPPH radical scavenging activities of analogs 1–8 were investigated as previously described with minor modification. L-Ascorbic acid was used as a positive control. In brief, 20 µL of analogs (5 mM) in DMSO or 5 mM L-ascorbic acid in distilled water were mixed with 180 µL of 0.2 mM DPPH in methanol in a 96-well microplate. After the microplate had been stored in the dark for 30 min, optical densities (ODs) were measured at 517 nm using a microplate reader (VersaMax®, Molecular Devices, Sunnyvale, CA, USA). DPPH radical scavenging activities were determined using the following formula:DPPH radical scavenging activity (%) = 100 × (Ac − As)/Ac(1) where Ac indicates the optical density of the non-treated control and As indicates the optical density of test sample. Experiments were conducted independently 3 times.
There is a possibility that compounds with antioxidant properties inhibit the oxidations of tyrosinase substrates, such as L-tyrosine and L-dopa, without interacting with the tyrosinase. Melanin production requires many oxidative processes, including the conversion of L-tyrosine to dopaquinone via L-dopa. Therefore, compounds with antioxidant activity have the potential to inhibit melanogenesis. DPPH (2,2-diphenyl-1-picrylhydrazyl) contains a free radical, and DPPH assays are commonly used to assess antioxidant activity. In this experiment, L-ascorbic acid (an antioxidant) was used as a positive control. The assay was conducted at a test sample and L-ascorbic acid concentration of 500 µM and a DPPH concentration of 0.18 mM. After standing test sample/DPPH mixtures for 30 min in the dark, optical densities were measured to evaluate radical scavenging activities.

| mode of mushroom tyrosinase inhibition ([1]; Lineweaver–Burk plots) | Vmax ([1]; Lineweaver–Burk plots, L-tyrosine, independent of analog 2 concentration (0, 5, 10, 20 µM)) [mM/min] | Ki ([1]; L-tyrosine) [nM] | Km ([1]; Lineweaver–Burk plots, L-tyrosine, independent of analog 3 concentration (0, 1, 2, 4 µM)) [µM] | Compound | cytotoxicity in B16F10 cells, 24 h ([2]; 1, 2, 5, 10, 20 µM, 24 h) | cytotoxicity in B16F10 cells, 48 h and 72 h ([2]; 1, 2, 5, 10, 20 µM, 48 h and 72 h) | DPPH radical scavenging activity [3] [%] | cytotoxicity in B16F10 cells, any concentration or time ([2]; 1, 2, 5, 10, 20 µM, 24, 48, 72 h) |
| --- | --- | --- | --- | --- | --- | --- | --- | --- |
| competitively | 0.00343 | 2220 | – | O=C1/C(=C/c2ccc(O)c(O)c2)SC(=S)N1C1CCCCC1 [Analog 2, (Z)-3-Cyclohexyl-5-(3,4-dihydroxybenzylidene)-2-thioxothiazolidin-4-one] | cytotoxic at 20 µM | cytotoxic at all concentrations | 92 | – |
| non-competitive | – | 1270 | 2810 | O=C1/C(=C/c2ccc(O)cc2O)SC(=S)N1C1CCCCC1 [Analog 3, (Z)-3-Cyclohexyl-5-(2,4-dihydroxybenzylidene)-2-thioxothiazolidin-4-one] | – | – | 73 | not cytotoxic |
